This note sets out measurements from US6784201B2, “Benzothiepines having activity as inhibitors of ileal bile acid transport and taurocholate uptake” (G.D. Searle & Company, priority 1994, dated 2004).

For orientation: melting point means the temperature of the solid-liquid transition. For orientation: inhibition means the drop in the measured response relative to a control, in per cent. Lower therefore signals a weak effect. Broadly, the IC50 is the concentration needed to halve the response being measured.

Series [1] deals with H14 cells. As to the kind of experiment: In vitro assay of uptake of [14C]-alanine. It counts as cell-based, hamster. The method, then: Baby hamster kidney cells (BHK) transfected with the cDNA of human IBAT (H14 cells) are seeded at 60,000 cells/well in 96 well Top-Count tissue culture plates for assays run within in 24 hours of seeding, 30,000 cells/well for assays run within 48 hours, and 10,000 cells/well for assays run within 72 hours.
On the day of assay, the cell monolayer is gently washed once with 100 μl assay buffer (Dulbecco's Modified Eagle's medium with 4.5 g/L glucose+0.2% (w/v) fatty acid free bovine serum albumin-(FAF)BSA). To each well 50 μl of a two-fold concentrate of test compound in assay buffer is added along with 50 μl of 6 μM [^14C]-taurocholate in assay buffer (final concentration of 3 μM [^14C]-taurocholate). The cell culture plates are incubated 2 hours at 37° C. prior to gently washing each well twice with 100 μl 4° C. Dulbecco's phosphate-buffered saline (PBS) containing 0.2% (w/v) (FAF)BSA. The wells are then gently washed once with 100 μl 4° C. PBS without (FAF)BSA. To each 200 μl of liquid scintillation counting fluid is added, the plates are heat sealed and shaken for 30 minutes at room temperature prior to measuring the amount of radioactivity in each well on a Packard Top-Count instrument.
In Vitro Assay of Compounds that Inhibit Uptake of [^14C3-Alanine
The alanine uptake assay is performed in an identical fashion to the taurocholate assay, with the exception that labeled alanine is substituted for the labeled taurocholate.

For series [2], the target named is T1, human IBAT (Homo sapiens, UniProt Q12908).
T1 construct: expressed in transfected cells; host or cells: Baby hamster kidney (BHK) cells, clone H14
T1 sequence (Q12908 1-348): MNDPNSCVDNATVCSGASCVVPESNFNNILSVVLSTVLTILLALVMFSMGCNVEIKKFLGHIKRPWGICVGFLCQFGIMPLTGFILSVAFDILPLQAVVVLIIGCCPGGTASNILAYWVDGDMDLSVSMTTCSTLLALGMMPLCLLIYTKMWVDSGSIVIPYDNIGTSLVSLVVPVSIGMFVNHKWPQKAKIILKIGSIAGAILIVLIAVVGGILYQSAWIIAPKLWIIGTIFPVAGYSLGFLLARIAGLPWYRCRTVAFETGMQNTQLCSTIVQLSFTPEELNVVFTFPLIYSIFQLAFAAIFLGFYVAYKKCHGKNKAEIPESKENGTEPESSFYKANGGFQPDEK
As to the kind of experiment: In vitro assay of IBAT-mediated uptake of [14C]-taurocholate (TC) in H14 cells. The class given is cell-based. Put shortly: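 BHK cells stably expressing human IBAT (H14) were incubated 2 h at 37° C with compound and 3 μM final [14C]-taurocholate in DMEM (4.5 g/L glucose) plus 0.2% fatty acid-free BSA. After cold PBS washes, cell-associated radioactivity was measured by scintillation counting.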

Series [3] deals with fecal bile acid (FBA). As to the kind of experiment: Rat gavage assay (fecal bile acid increase). It counts as in vivo. The method, then: Male Wister rats (275-300 g) are administered IBAT inhibitors using an oral gavage procedure. Drug or vehicle (0.2% Tween 80 in water) is administered once a day (9:00-10:0 a.m.) for 4 days at varying dosages in a final volume of 2 mL per kilogram of body weight. Total fecal samples are collected during the final 48 hours of the treatment period and analyzed for bile acid content using an enzymatic assay as described below. Compound efficacy is determined by comparison of the increase in fecal bile acid (FBA) concentration in treated rats to the mean FBA concentration of rats in the vehicle group.
Measurement of Fecal Bile Acid Concentration (FBA)
Total fecal output from individually housed hamsters was collected for 24 or 48 hours, dried under a stream of nitrogen, pulverized and weighed. Approximately 0.1 gram was weighed out and extracted into an organic solvent (butanol/water). Following separation and drying, the residue was dissolved in methanol and the amount of bile acid present was measured enzymatically using the 3α-hydroxysteroid steroid dehydrogenase reaction with bile acids to reduce NAD. (Reference: Mashige, F., et al. (1981) Clin. Chem. 27, 1352).

[4] abbreviates: H14 cells, Table 5, read-out: IC50 uM (In vitro Taurocholate Cell Uptake).
The mark [5] stands for this setting: In Vitro Taurocholate Uptake, Table 10, read-out: Human TC IC50.

Structures can show the parent of a compound that is named as a salt. Where two headings read alike, the source gives them in different places.

`CCCCC1(CCCC)CS(=O)(=O)c2ccc(N(C)C)cc2[C@@H](c2cccc(NC(=O)OCCC[N+]34CCN(CC3)CC4)c2)[C@H]1O.[Cl-]` displayed a melting point of 218 to 225 °C.

In turn, `CCCCC1(CCCC)CS(=O)(=O)c2ccc(N(C)C)cc2[C@@H](c2cccc(NC(=O)Nc3cccc(C[N+]45CCN(CC4)CC5)c3)c2)[C@H]1O.[Cl-]` registered a melting point of 246 to 248 °C.

In the case of `CCCCC1(CCCC)CS(=O)(=O)c2ccc(N(C)C)cc2[C@@H](c2ccc(OCCCCC[n+]3cccc4ccccc43)cc2)[C@H]1O` (as salt: methanesulfonate) [Example 1412, (4R-cis)-1-[5-[4-[3,3-Dibutyl-7-(dimethylamino)-2,3,4,5-tetrahydro-4-hydroxy-1,1-dioxido-1-benzothiepin-5-yl]phenoxy]pentyl]quinolinium, methanesulfonate (Salt)], the melting point was determined as 136 °C.

`O=S1(=O)CC2(CCCCC2)[C@@H](O)[C@@H](c2ccccc2)c2ccccc21` (relative stereo) [Example 60, cis-4-Hydroxy-5-phenyl-2,3,4,5-tetrahydro spiro(benzothiepine-3,1′-cyclohexane)-1,1-dioxide] gave an inhibition at 100 µM in series [1] (Mesocricetus auratus) of 59%. The IC50 in series [2] (setting [4]) is 9 µM.

Compound `CCCCC1(CCCC)CS(=O)(=O)c2ccc(N(C)C)cc2[C@@H](c2ccc(OCCCCC[N+](C)(C)CCCCCC[N+](C)(C)CCCCCOc3ccc([C@@H]4c5cc(N(C)C)ccc5S(=O)(=O)CC(CCCC)(CCCC)[C@@H]4O)cc3)cc2)[C@H]1O` (relative stereo) [Example 1419, [4R-[4a,5a(4R*,5R*)]]-N,N′-bis[5-[4-[3,3-Dibutyl-7-(dimethylamino)-2,3,4,5-tetrahydro-4-hydroxy-1,1-dioxido-1-benzothiepin-5-yl]phenoxy]pentyl]-N,N,N′N′-tetramethyl-1,6-hexanediaminium dichloride] showed a melting point of 178 to 182 °C. Also, the “Delta (micromoles fecal bile acid per day)” value in series [3] (dose 2 mg/kg/day) is 28.5 micromoles fecal bile acid per day. The “Delta (micromoles fecal bile acid per day)” value in series [3] (dose .016 mg/kg/day) is recorded as 5.8 micromoles fecal bile acid per day. For the same compound, the “Delta (micromoles fecal bile acid per day)” value in series [3] (dose .08 mg/kg/day) is on record as 10.3 micromoles fecal bile acid per day. For the same compound, the “Delta (micromoles fecal bile acid per day)” value in series [3] (dose .4 mg/kg/day) was 13.9 micromoles fecal bile acid per day. Moreover, the IC50 in series [2] (setting [5]) was 0.003 µM.

The compound `CCCCC1(CC)C=C(c2ccccc2)c2ccccc2S(=O)(=O)C1` (stereo not drawn) [Example 7, 3-Butyl-3-ethyl-5-phenyl-2,3-dihydrobenzothiepine-1,1-dioxide] displayed an inhibition at 100 µM in series [1] (Mesocricetus auratus) of 49.3%. In series [2] (setting [4]), the IC50 was found to be 50 µM.

`CCCCC1(CC)CS(=O)(=O)c2ccccc2C(=C2CCCCC2)C1O` (stereo not drawn) [Example 10a, 3-Butyl-3-ethyl-4-hydroxy-5-cyclohexylidine--2,3,4,5-tetrahydrobenzothiepine-1,1-dioxide]: the “% Inhibition of Alanine Uptake @ 100 uM” value in series [1] (100 uM) came out at 77.6%. The 50% inhibitory concentration (IC50) in series [2] (setting [4]) stood at 7 µM.

Turning to `CCCC[C@]1(CC)CS(=O)(=O)c2cc(O)ccc2[C@H](c2ccccc2)[C@@H]1O` [Example 27, (3α,4α,5α) 3-Butyl-3-ethyl-4,8-dihydroxy-5-phenyl-2,3,4,5-tetrahydrobenzothiepine-1,1-dioxide], at 20 µM the inhibition in series [1] (Mesocricetus auratus) was 7%.

For `CCCCC1(CC)CS(=O)(=O)c2cc(OCC)ccc2C(c2ccccc2)C1O` (stereo not drawn) [Example 28], testing at 20 µM in series [1] (Mesocricetus auratus) gave an inhibition of 31%. The IC50 in series [2] (setting [4]) is 8 µM.

In series [1] (Mesocricetus auratus, 5 μM), `CCCC[C@]1(CC)CS(=O)(=O)c2ccc(NO)cc2[C@H](c2ccccc2)[C@@H]1O` [Example 37, (3α,4α,5α) 3-Butyl-3-ethyl-4-hydroxy-7-hydroxyamino-5-phenyl-2,3,4,5-tetrahydrobenzothiepine-1,1-dioxide] came in with an inhibition at 5 µM of 0%. Besides, in series [2] (setting [4]), the half-inhibitory concentration (IC50) is 3 µM.

The compound `CCCCCCNc1ccc2c(c1)[C@@H](c1ccccc1)[C@@H](O)[C@](CC)(CCCC)CS2(=O)=O` [Example 41, (3α,4β,5β) 3-Butyl-3-ethyl-7-(n-hexylamino)-4-hydroxy-5-phenyl-2,3,4,5-tetrahydrobenzothiepine-1,1-dioxide] displayed an inhibition at 20 µM in series [1] (Mesocricetus auratus) of 0%. In addition, in series [2] (setting [4]), the concentration for half-maximal inhibition (IC50) was 2 µM.

For the compound `CCCC[C@]1(CC)CS(=O)(=O)c2ccccc2[C@@H](c2ccc(C(=O)OC)cc2)[C@H]1O` [Example 43, (3α,4β,5β) 3-Butyl-5-(4-carbomethoxyphenyl)-3-ethyl-4-hydroxy-2,3,4,5-tetrahydrobenzothiepine-1,1-dioxide], in series [1] (Mesocricetus auratus, 25 μM), testing at 25 µM gave an inhibition of 16%. In series [2] (setting [4]), the IC50 amounted to 1.5 µM.

As to `CCCC[C@]1(CC)CS(=O)(=O)c2ccc(OC)cc2[C@H](c2ccccc2)[C@@H]1O` [Example 48, (3α,4α,5α) 3-Butyl-3-ethyl-4-hydroxy-7-methoxy-5-phenyl-2,3,4,5-tetrahydrobenzothiepine-1,1-dioxide], in series [1] (Mesocricetus auratus), the inhibition at 20 µM was determined as 22%. In addition, the IC50 in series [2] (setting [4]) is 2 µM.

Compound `CCC1(CC)CS(=O)(=O)c2ccc(NC(=O)OCc3ccccc3)cc2[C@@H](c2ccccc2)[C@H]1O` [Example 286] showed a melting point of 180 to 181 °C. For the same compound, in series [2] (read-out: Human TC IC50), the 50% inhibitory concentration (IC50) worked out at 19 µM.

For the compound `CCCCC1(CCCC)CS(=O)(=O)c2ccc(N(C)C)cc2[C@@H](c2ccc(OCCCCS(N)(=O)=O)cc2)[C@H]1O` [Example 1405], the melting point was 108 to 110 °C. Also, the 50% inhibitory concentration (IC50) in series [2] (setting [5]) is 0.021 µM.

For the compound `CCCCC1(CCCC)CS(=O)(=O)c2ccc(N(C)C)cc2[C@@H](c2ccc(OCCCCCC(C(=O)O)C(=O)O)cc2)[C@H]1O` [Example 1413, (4S-cis)-[5-[4-[3,3-Dibutyl-7-(dimethylamino)-2,3,4,5-tetrahydro-4-hydroxy-1,1-dioxido-1-benzothiepin-5-yl]phenoxy]pentyl]propanedioic acid], the melting point worked out at 118 °C. Moreover, the “Delta (micromoles fecal bile acid per day)” value in series [3] (dose 5 mg/kg/day) was 52.3 micromoles fecal bile acid per day. For the same compound, the “Delta (micromoles fecal bile acid per day)” value in series [3] (dose .04 mg/kg/day) was 19 micromoles fecal bile acid per day. Also, the “Delta (micromoles fecal bile acid per day)” value in series [3] (dose .2 mg/kg/day) was 42.4 micromoles fecal bile acid per day. For the same compound, the IC50 in series [2] (setting [5]) was 0.003 µM.

Take `CCCCC1(CCCC)CS(=O)(=O)c2ccc(N(C)C)cc2[C@@H](c2ccc(OCCCCCNC(=N)N)cc2)[C@H]1O` [Example 1422, (4R-cis)-[5-[4-[3,3-Dibutyl-7-(dimethylamino)-2,3,4,5-tetrahydro-4-hydroxy-1,1-dioxido-1-benzothiepin-5-yl]phenoxy]pentyl]guanidine]: the melting point fell in the range of 67 to 72.5 °C. In addition, the IC50 in series [2] (setting [5]) is 0.003 µM.

Take `CCCCC1(CCCC)CS(=O)(=O)c2ccc(N(C)C)cc2[C@@H](c2ccc(OCc3ccc(C(=O)O)cc3)cc2)[C@H]1O` [Example 1424, (4R-cis)-4-[[4-[3,3-Dibutyl-7-(dimethylamino)-2,3,4,5-tetrahydro-4-hydroxy-1,1-dioxido-1-benzothiepin-5-yl]phenoxy]methyl]benzoic acid]: the melting point was in the range of 156 to 159 °C. Besides, in series [2] (setting [5]), the 50% inhibitory concentration (IC50) came to 0.014 µM.
